Test results published in US9446039B2, “Aminoheteroaryl compounds as MTH1 inhibitors” (CEMM—FORSCHUNGSZENTRUM FÜR MOLEKULARE MEDIZIN GMBH, priority 2012, dated 2016).

Tests used:
Type in all cases: binding
[1] = molecular target: SW480 colon carcinoma cells lysate proteins (Homo sapiens, UniProt Q9BQE3); conditions: PreyGene TUBA1C; SW480 cells
[2] = molecular target: SW480 colon carcinoma cells lysate proteins (Homo sapiens, UniProt P14625); conditions: PreyGene HSP90B1
[3] = molecular target: SW480 colon carcinoma cells lysate proteins (Homo sapiens, UniProt Q14315); conditions: PreyGene FLNC; SW480 cells
[4] = molecular target: SW480 colon carcinoma cells lysate proteins (Homo sapiens, UniProt P18669); conditions: PreyGene PGAM1
[5] = molecular target: T1, SW480 colon carcinoma cells lysate proteins (Homo sapiens, UniProt Q01844); conditions: PreyGene EWSR1; SW480 cells
T1 sequence (Q01844 1-656): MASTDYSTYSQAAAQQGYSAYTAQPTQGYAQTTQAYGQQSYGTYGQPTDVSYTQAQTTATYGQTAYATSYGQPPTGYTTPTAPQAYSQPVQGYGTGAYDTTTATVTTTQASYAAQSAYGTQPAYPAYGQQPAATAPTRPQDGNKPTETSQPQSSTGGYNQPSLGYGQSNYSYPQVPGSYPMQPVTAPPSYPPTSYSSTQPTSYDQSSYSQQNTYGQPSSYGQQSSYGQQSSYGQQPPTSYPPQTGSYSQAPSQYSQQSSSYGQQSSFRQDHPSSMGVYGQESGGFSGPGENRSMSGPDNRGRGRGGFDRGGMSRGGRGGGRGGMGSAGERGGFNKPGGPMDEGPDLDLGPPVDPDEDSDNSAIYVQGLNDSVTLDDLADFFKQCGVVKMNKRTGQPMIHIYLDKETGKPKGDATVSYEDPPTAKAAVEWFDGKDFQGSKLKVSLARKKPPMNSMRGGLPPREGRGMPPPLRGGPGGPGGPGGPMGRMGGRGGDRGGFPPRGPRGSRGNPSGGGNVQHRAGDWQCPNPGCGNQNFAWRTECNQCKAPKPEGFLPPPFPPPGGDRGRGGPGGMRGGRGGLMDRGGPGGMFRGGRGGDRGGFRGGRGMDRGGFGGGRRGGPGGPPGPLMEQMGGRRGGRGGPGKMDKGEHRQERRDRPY

[6] = molecular target: T2, SW480 colon carcinoma cells lysate proteins (Homo sapiens, UniProt P16949); conditions: PreyGene STMN1
T2 sequence (P16949 1-149): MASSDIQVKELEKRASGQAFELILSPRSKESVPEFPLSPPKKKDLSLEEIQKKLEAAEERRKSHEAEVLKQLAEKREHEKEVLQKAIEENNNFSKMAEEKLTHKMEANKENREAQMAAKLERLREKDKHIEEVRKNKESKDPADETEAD

[7] = molecular target: SW480 colon carcinoma cells lysate proteins (Homo sapiens, UniProt P00441); conditions: PreyGene SOD1
[8] = molecular target: T3, SW480 colon carcinoma cells lysate proteins (Homo sapiens, UniProt P40925); conditions: PreyGene MDH1
T3 sequence (P40925 1-334): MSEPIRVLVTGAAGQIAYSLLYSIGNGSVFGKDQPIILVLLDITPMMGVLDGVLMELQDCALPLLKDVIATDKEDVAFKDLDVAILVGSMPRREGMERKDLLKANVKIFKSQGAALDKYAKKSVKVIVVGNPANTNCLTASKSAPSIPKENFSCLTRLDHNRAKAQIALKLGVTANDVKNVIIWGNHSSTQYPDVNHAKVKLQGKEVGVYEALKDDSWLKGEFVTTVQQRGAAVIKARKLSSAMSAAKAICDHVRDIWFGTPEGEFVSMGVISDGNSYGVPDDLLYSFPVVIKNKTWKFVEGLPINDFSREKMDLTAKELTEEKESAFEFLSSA

[9] = molecular target: SW480 colon carcinoma cells lysate proteins (Homo sapiens, UniProt Q01105); conditions: PreyGene SET
[10] = molecular target: SW480 colon carcinoma cells lysate proteins (Homo sapiens, UniProt P63244); conditions: PreyGene GNB2L1; SW480 cells
[11] = molecular target: T4, SW480 colon carcinoma cells lysate proteins (Homo sapiens, UniProt Q13442); conditions: PreyGene PDAP1; SW480 cells
T4 sequence (Q13442 1-181): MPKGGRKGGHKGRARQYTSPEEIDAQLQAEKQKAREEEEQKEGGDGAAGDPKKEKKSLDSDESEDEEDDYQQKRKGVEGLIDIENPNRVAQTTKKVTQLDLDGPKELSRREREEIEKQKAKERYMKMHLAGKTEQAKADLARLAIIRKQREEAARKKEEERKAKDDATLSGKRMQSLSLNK

Chain of SW480 colon carcinoma cells lysate proteins (Homo sapiens, UniProt Q14315) (Q14315 whole entry): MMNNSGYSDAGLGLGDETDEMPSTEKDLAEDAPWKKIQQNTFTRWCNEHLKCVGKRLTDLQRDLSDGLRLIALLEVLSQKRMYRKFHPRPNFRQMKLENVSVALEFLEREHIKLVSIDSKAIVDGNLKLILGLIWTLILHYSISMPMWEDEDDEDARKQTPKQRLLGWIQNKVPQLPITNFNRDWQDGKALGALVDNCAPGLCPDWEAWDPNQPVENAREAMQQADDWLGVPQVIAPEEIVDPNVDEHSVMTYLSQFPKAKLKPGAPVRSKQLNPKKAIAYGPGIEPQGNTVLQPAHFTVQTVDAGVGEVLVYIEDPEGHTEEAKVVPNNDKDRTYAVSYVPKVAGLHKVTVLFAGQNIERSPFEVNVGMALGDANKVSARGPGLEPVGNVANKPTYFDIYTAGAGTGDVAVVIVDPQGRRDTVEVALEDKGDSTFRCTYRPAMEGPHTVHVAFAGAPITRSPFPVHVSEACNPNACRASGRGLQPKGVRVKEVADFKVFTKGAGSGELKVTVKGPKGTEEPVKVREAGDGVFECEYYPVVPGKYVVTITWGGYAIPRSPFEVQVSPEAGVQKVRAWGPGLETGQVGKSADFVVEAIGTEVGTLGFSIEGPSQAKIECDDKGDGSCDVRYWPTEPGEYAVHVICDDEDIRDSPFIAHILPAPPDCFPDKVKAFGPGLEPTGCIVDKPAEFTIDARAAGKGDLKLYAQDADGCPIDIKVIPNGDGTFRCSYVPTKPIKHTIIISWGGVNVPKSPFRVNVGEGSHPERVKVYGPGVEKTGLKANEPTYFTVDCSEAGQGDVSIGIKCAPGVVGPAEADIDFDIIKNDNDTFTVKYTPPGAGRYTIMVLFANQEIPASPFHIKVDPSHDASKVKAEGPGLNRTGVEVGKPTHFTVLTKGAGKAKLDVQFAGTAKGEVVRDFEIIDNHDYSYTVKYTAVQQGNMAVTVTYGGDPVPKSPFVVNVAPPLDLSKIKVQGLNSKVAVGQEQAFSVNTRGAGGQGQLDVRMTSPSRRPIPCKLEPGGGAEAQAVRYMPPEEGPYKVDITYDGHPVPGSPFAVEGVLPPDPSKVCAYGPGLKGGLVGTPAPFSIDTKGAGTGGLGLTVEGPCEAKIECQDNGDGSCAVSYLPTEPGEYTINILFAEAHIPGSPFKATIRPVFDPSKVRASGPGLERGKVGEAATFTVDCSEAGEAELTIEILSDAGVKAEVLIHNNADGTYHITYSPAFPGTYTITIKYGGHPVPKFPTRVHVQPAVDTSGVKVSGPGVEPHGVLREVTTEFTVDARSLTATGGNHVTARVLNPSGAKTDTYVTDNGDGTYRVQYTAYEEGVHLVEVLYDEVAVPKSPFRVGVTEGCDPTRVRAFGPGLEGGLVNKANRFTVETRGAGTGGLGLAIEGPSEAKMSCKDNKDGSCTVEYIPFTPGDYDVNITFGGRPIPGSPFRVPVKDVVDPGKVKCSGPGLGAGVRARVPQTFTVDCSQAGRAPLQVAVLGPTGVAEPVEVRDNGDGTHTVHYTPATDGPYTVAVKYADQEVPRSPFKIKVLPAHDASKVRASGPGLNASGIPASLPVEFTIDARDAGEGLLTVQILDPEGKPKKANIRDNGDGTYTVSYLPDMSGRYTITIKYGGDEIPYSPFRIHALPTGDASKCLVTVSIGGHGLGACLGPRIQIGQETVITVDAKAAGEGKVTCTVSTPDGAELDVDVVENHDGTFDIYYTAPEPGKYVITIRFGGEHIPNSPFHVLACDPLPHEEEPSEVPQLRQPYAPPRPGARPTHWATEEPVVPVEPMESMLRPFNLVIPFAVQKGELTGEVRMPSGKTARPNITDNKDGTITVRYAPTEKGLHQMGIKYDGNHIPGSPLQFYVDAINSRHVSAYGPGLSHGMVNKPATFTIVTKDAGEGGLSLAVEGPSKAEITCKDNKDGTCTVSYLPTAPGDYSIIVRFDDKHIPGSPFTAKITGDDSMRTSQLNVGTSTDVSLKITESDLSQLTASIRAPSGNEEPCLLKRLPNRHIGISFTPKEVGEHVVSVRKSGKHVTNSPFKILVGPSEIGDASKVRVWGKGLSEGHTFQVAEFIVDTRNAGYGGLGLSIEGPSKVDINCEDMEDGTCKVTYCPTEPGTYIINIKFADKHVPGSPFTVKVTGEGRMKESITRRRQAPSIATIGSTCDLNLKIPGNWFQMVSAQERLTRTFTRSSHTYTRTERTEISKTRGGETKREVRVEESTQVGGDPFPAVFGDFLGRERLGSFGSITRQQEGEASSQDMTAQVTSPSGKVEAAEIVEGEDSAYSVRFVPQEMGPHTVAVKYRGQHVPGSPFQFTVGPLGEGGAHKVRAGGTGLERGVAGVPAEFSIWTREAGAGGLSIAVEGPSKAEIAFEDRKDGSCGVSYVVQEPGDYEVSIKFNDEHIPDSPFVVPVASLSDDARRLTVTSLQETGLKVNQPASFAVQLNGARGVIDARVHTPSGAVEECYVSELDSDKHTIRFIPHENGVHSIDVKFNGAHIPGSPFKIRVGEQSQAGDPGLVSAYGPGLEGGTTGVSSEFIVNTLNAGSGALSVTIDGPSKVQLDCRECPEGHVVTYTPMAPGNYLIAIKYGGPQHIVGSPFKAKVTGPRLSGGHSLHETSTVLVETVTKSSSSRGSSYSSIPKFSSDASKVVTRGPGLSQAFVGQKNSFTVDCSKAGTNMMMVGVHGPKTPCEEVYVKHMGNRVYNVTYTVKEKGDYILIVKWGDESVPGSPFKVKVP
Chain of SW480 colon carcinoma cells lysate proteins (Homo sapiens, UniProt P14625) (P14625 22-803): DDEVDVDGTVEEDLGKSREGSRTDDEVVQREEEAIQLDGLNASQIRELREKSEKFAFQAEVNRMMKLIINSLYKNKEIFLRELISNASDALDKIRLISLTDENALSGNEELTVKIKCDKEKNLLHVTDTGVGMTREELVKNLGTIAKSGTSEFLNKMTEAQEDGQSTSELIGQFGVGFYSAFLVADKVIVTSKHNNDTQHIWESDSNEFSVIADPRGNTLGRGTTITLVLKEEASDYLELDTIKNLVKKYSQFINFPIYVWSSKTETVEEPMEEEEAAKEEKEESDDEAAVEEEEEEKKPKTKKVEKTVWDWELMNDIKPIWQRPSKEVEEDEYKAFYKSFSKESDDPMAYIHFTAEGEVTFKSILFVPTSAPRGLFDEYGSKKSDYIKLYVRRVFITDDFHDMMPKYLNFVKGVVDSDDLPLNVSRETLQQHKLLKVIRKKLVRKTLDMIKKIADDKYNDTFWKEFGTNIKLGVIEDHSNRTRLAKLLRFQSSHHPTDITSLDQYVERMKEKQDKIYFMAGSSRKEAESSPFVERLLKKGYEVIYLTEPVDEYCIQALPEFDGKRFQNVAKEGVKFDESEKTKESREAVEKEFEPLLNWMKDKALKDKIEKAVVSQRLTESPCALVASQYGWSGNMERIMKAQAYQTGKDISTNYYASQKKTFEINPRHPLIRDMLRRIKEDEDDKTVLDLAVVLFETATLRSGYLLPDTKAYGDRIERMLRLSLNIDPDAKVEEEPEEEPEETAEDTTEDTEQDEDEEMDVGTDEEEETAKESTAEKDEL
Chain of SW480 colon carcinoma cells lysate proteins (Homo sapiens, UniProt Q9BQE3) (Q9BQE3 whole entry): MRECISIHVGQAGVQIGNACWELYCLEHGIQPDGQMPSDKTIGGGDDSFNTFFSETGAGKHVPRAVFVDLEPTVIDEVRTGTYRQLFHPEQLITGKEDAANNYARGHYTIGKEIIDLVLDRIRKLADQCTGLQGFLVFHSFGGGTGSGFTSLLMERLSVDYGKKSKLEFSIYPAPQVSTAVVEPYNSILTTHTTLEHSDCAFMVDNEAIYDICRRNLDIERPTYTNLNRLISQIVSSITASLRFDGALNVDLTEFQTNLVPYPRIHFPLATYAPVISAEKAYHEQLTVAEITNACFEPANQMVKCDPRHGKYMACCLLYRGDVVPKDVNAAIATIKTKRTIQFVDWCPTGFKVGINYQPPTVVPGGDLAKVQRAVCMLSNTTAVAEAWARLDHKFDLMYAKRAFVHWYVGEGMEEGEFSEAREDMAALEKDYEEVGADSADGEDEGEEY
Chain of SW480 colon carcinoma cells lysate proteins (Homo sapiens, UniProt P00441) (P00441 whole entry): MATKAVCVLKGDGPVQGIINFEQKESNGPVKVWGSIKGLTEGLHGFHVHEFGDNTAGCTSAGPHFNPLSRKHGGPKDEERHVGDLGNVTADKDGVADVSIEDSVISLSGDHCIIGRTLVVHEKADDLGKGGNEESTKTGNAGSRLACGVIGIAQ
Chain of SW480 colon carcinoma cells lysate proteins (Homo sapiens, UniProt Q01105) (Q01105 whole entry): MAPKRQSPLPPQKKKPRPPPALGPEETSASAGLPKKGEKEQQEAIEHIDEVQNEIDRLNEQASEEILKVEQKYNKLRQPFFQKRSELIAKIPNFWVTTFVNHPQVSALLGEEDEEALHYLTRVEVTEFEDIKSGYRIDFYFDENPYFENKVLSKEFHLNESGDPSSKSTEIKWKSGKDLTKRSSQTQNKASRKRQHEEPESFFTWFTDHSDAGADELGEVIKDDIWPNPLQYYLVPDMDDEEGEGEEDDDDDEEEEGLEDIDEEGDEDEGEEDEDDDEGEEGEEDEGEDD
Chain of SW480 colon carcinoma cells lysate proteins (Homo sapiens, UniProt P18669) (P18669 whole entry): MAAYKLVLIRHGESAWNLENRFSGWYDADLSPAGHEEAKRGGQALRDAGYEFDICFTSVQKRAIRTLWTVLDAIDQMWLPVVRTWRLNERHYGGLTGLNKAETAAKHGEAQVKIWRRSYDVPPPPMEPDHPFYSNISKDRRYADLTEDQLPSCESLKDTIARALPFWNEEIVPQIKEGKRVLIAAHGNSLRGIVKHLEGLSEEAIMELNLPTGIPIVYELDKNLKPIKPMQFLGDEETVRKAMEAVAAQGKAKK

## C[C@H](Oc1cc(-c2cnn(C3CCNCC3)c2)cnc1N)c1c(Cl)ccc(F)c1Cl [(5)-crizotinib]
[1]
  AvgP: 0
  SC.Exp. 1-1: 1
  SC.Exp. 1-2: 1
  SC.Exp. 2-1: 0
  SC.Exp. 2-2: 1
  SC.Exp. Sum: 3
[2]
  AvgP: 0.228
  SC.Exp. 1-1: 13
  SC.Exp. 1-2: 8
  SC.Exp. 2-1: 0
  SC.Exp. 2-2: 0
  Sum (SC.Exp.): 21
[3]
  AvgP: 0
  SC.Exp. 1-1: 0
  SC.Exp. 1-2: 0
  SC.Exp. 2-1: 0
  SC.Exp. 2-2: 1
  SC.Exp. Sum: 1
[4]
  AvgP: 0.4721
  SC.Exp. 1-1: 6
  SC.Exp. 1-2: 6
  SC.Exp. 2-1: 0
  SC.Exp. 2-2: 0
  Sum (SC.Exp.): 12
[5]
  AvgP: 0
  SC.Exp. 1-1: 0
  SC.Exp. 1-2: 1
  SC.Exp. 2-1: 0
  SC.Exp. 2-2: 0
  SC.Exp. Sum: 1
[6]
  AvgP: 0.4156
  SC.Exp. 1-1: 3
  SC.Exp. 1-2: 3
  SC.Exp. 2-1: 0
  SC.Exp. 2-2: 0
  Sum (SC.Exp.): 6
[7]
  AvgP: 0.3882
  SC.Exp. 1-1: 3
  SC.Exp. 1-2: 3
  SC.Exp. 2-1: 0
  SC.Exp. 2-2: 0
  Sum (SC.Exp.): 6
[8]
  AvgP: 0.4615
  SC.Exp. 1-1: 5
  SC.Exp. 1-2: 6
  SC.Exp. 2-1: 0
  SC.Exp. 2-2: 0
  Sum (SC.Exp.): 11
[9]
  AvgP: 0.4696
  SC.Exp. 1-1: 3
  SC.Exp. 1-2: 3
  SC.Exp. 2-1: 4
  SC.Exp. 2-2: 3
  Sum (SC.Exp.): 13
[10]
  AvgP: 0
  SC.Exp. 1-1: 12
  SC.Exp. 1-2: 13
  SC.Exp. 2-1: 9
  SC.Exp. 2-2: 11
  SC.Exp. Sum: 45
[11]
  AvgP: 0
  SC.Exp. 1-1: 1
  SC.Exp. 1-2: 1
  SC.Exp. 2-1: 0
  SC.Exp. 2-2: 0
  SC.Exp. Sum: 2
